Laboratory results: patent US10105425B2, “Isolated donor MHC-derived peptide and uses thereof” (INSERM (INSTITUT NATIONAL DE LA SANTÉ ET DE LA RECHERCHE …, priority 2014, dated 2018)

Legend:
[1] = test system: CD8^+CD40Ig Tregs; assay: MLR coculture: CD25 activation of CD8+CD40Ig Tregs with syngeneic pDCs and allogeneic peptides; format: cell-based, rat; details: for upregulation of CD25 expression, fold vs. no peptide: 6 days culture, matured syngeneic pDCs, 120 μg/ml peptide
Description: (§1) For MLR coculture assays, pDCs from LEW.1A naive rats (1.25×10^4 cells), syngeneic CD8^+CD40Ig Tregs (5×10^4 cells) and 120 μg/ml of allogeneic peptides were plated in triplicate in 200 μl of complete RPMI-1640 medium in round-bottom 96 wells plates for 6 days at 37° C., 5% CO2. pDCs were matured with 0.5 μM of CpG ODN 1826.
(§2) Proliferation of CFSE-labeled naive CD4^+CD25^− T cells and phenotype of CD8^+CD45RC^low Tregs were analyzed by flow cytometry on a FACSCanto II cytometer (BD Biosciences, Mountain View, Calif.) after gating on TCR^+CD4^+ cells or TCR^+CD8^+ cells among live cells (DAPI negative).
For extracellular staining, cells were stained with the following mAbs: anti-TCRαβ (R73, Alexa Fluor 647-conjugated), anti-CD8α (OX8, PE-Cy7-conjugated, ebiosciences), anti-CD4 (W3.25, PE-Cy7-conjugated), anti-CD45RC (OX22, FITC-conjugated), anti-CD28 (JJ319, biotin-labeled), anti-CD71 (OX26, biotin-labeled), anti-mouse Vb11 (KT11, biotin-labeled, AbD Serotec) anti-CD25 (OX39, biotin-labeled) and anti-MHC-II (OX6, biotin-labeled).
(§3) All biotinylated mAbs were visualized using Streptavidin-PerCP.Cy5.5 (BD Biosciences). A FACSCanto II cytofluorimeter (BD Biosciences, Mountain View, Calif.) was used to measure fluorescence, and data were analyzed using FlowJo software (Tree Star, Inc. USA, version 7.6.5). Cells were first gated by their morphology and dead cells excluded by selecting DAPI negative viable cells.

[2] = test system: cardiac grafts; assay: Morphometric analysis of cardiac grafts (chronic rejection); format: in vivo, rat; details: long-term surviving Du51-treated recipients
Description: The upper third of the graft was fixed in paraformaldehyde and embedded in paraffin. Five μm coronal sections were stained with hematoxylin-eosine-safron. Tissues were analyzed by a pathologist (K.R.) blinded to the groups and chronic rejection was evaluated as previously described (63).

[3] = test system: CD8^+CD40Ig Tregs and pDCs; assay: Cytokine ELISA in coculture supernatants after peptide stimulation; format: cell-based, rat; details: 6 days peptide stimulation with pDCs, supernatant
Description: as §1
IFNγ, IL-10 were measured in coculture supernatants using ELISA from BD Biosciences OptEIA, IL-12 and TGFβ using ELISA from Invitrogen and R&D System respectively.

[4] = test system: heart allograft in irradiated LEW.1A recipients; assay: Adoptive transfer of splenocytes from Du51-treated long-surviving recipients
Description: Total splenocytes (1.5·10^8 cells) were adoptively transferred i.v. the day before heart transplantation into naive LEW-1A recipients that had received 4.5 Gy of whole-body irradiation the same day. Recipients received splenocytes from Du51-treated rats (defined as 1st spl-transferred) or from naive rats (naive spl-transferred) or no cells (untreated irradiated).

[5] = test system: CD4^+CD25^− T cells; assay: Direct MLR suppressive assay (CFSE proliferation); format: cell-based, rat
Description: For direct MLR suppressive assays, sorted CFSE-labeled CD4^+CD25^− T cells from LEW.1A origin (5×10^4 cells) and allogeneic pDCs isolated from donor LEW.1W animals (1.25×10^4 cells) were plated in triplicate for 6 days in a final volume of 200 μl of completed RPMI-1640 medium in round-bottom 96 wells plates with FACS-sorted freshly purified naive CD8^+CD45RC^low Treg cells, peptide-expanded CD8^+CD40Ig Treg cells (5×10^4 cells), Du51 tetramer^+ or ^− CD8^+CD40Ig Tregs. For indirect MLR suppressive assay, splenocytes isolated from donor LEW.1W animals were frozen-thawed to induce apoptosis. Apoptotic cells were then cultured overnight with pDCs isolated from recipient LEW.1A animals (8:1 ratio) at 0.65×10^6 pDCs/mL. Alloantigens-loaded pDCs were finally washed and plated as described before for the direct MLR.
as §2

[6] = test system: donor-specific alloantibodies; assay: Donor specific alloantibody detection by cytofluorimetry; format: in vivo, rat; details: long-term surviving Du51-treated recipients vs untreated or early rejecting
Description: Alloantibodies were analyzed by cytofluorimetry as described elsewhere (28). Briefly, after digestion by collagenase D and red blood cell lysis, allogeneic spleen cells were incubated with diluted (1/8) heat-inactivated serum, and then with FITC-conjugated goat anti-rat IgG antibodies (H+L chain specific) (Jackson Laboratories), a mouse anti-rat IgG1 MAb (MCA 194, Serotec), IgG2a (MCA 278, Serotec) or IgG2b (MCA 195, Serotec). […] Cells were analyzed using a FACS Canto II cytofluorimeter (BD Biosciences, Mountain View, Calif.) and the results were expressed as mean channel fluorescence for each serum.

[7] = test system: CD4^+ and CD8^+ T cells isolated from rejected untreated animals; details: unmodified LEW.1A recipients, LEW.1W into LEW.1A; cited from earlier work
[8] = test system: heart allograft in LEW.1A recipients; assay: Cardiac allotransplantation with in vivo peptide treatment; design: species or system rat; details: for allograft survival: five i.v injections of 500 μg peptide, LEW.1W into LEW.1A, n=4
Description: Allotransplantations of heart were performed between whole MHC incompatible LEW.1W (RT1.A^u as donors) and LEW.1A (RT1.A^a as recipients) male rats as previously described (5). The experiments were approved by the regional ethical committee for animal experimentation.
16-mer peptides were dissolved in 0.4% DMSO/PBS before injection. For the first protocol, single doses of peptide (500 μg/injection) were injected i.v at different time points before and after transplantation at day −6, −3, 0 +3 and +7 into grafted LEW.1A recipients. In the second protocol, mini osmotic pumps (ALZET, Cupertino, Calif., USA) were implanted intraperitoneally (i.p) in recipients and delivered continuously either 20.83 or 41.66 μg/hour of 16-mer peptides for 14 days. A first pump was implanted on day −7 before transplantation and was replaced by a second one at day +7, allowing delivery of 14 or 28 mg of peptide per animal for 28 consecutive days. A depleting anti-CD8α mAb (OX8, IgG1, 3 mg/kg) or an anti-MHC class Ia and Ib mAb (OX18, 3 mg/kg) were injected i.p. twice a week from day −7 until rejection. Allografts were monitored daily by palpation and allograft rejection was defined as complete cessation of palpable heart beat.

[9] = test system: CD8^+CD45RC^low Tregs; assay: Spleen cell populations by flow cytometry after peptide treatment; format: in vivo, rat; details: long-term surviving Du51-treated recipients
Description: as §3
Tetramerization of RT1.A^a/Du51 was performed at room temperature by addition of streptavidin-PE (Jackson ImmunoResearch) or streptavidin-APC (BD Biosciences) at a 4:1-molar ratio, in four equal aliquots added at 15-min intervals. Likewise, the control tetramer RT1.A^a/MTF-E (ILFPSSERLISNR) was conjugated to streptavidin-BV421 (Biolegend) and represented 1.6+/−0.7% of non-specific staining among Du51-specific cells. These three reagents were mixed and added to plated cells at 10 μg/mL for 1 hour at 4° C. Cells were further stained for CD8 and CD45RC and fluorescence was analyzed on a FACSCanto II cytometer (BD Biosciences, Mountain View, Calif.). Cells were first gated by their morphology and dead cells excluded by selecting DAPI negative cells.

[10] = after 6 days of peptide stimulation

Question: With “REEYARFDSDVGEYR (Synthetic 15-mer peptide 51-18)” as the sequence, how does the “upregulation of CD25 expression, fold vs. no peptide” value (“upregulation … fold vs. no peptide” for short) [1] read?
Answer: 2.04±0.3 fold

Question: What about the “activation / recognition by CD8+CD40Ig Tregs (CD25), in words” value ([1]; coculture with matured syngeneic pDCs, 6 days) of the same sequence?
Answer: not significantly different from that induced by Du51

Question: For “NREEYARFDSDVGEYR (Synthetic Dominant peptide Du51)”, which “upregulation … fold vs. no peptide” value [1] is on record?
Answer: 2.07±0.18 fold

Question: And the CD28 expression [1, 10]?
Answer: upregulation

Question: What about the CD71 expression [1, 10] of the same sequence?
Answer: upregulation

Question: And the Foxp3 expression [1, 10]?
Answer: no modification

Question: What about the “MHC class II expression” value [1, 10] of the same sequence?
Answer: upregulation

Question: What about the “signs of chronic rejection in graft” value [2] of the same sequence?
Answer: no signs of chronic rejection

Question: And the IFNγ expression [3]?
Answer: significant increased expression

Question: And the IL-10 expression [3]?
Answer: no modification

Question: And the IL-12 production [3]?
Answer: decreased

Question: What about the TGFβ expression [3] of the same sequence?
Answer: no modification

Question: And the “recipients with significant prolongation of allograft survival” value ([4]; 150·10^6 splenocytes from recipients treated with 1 mg/day Du51, irradiated secondary recipients)?
Answer: 50%

Question: And the “anatomopathological status of graft” value ([4]; first adoptively transferred long term recipients)?
Answer: complete absence of vascular lesions and obstructions

Question: What about the “total IgG, IgG1 and IgG2b alloantibodies production” value ([4]; first adoptively transferred long-term recipients vs untreated) of the same sequence?
Answer: total inhibition

Question: And the “ex vivo suppressive activity of peptide-induced CD8+CD45RClow Tregs” value ([5]; Tregs from Du51-treated recipients)?
Answer: efficiently inhibit effector CD4^+ T cell proliferation

Question: And the “proliferation of effector T cells with peptide-stimulated Tregs” value ([5]; Tregs stimulated 6 days with peptide, compared to non-activating peptide)?
Answer: significant inhibition

Question: And the “total IgG, IgG1, IgG2a and IgG2b alloantibodies production” value [6]?
Answer: total inhibition

Question: What about the “involvement in acute rejection of grafts” value [7] of the same sequence?
Answer: not involved in acute rejection

Question: What about the allograft survival [8] of the same sequence?
Answer: 9.5 days

Question: And the indefinite allograft survival ([8]; i.p. mini-osmotic pumps 20.8 μg peptide per hour for 28 days from day -7)?
Answer: 25%

Question: What about the “indefinite allograft survival, recipients” value ([8]; osmotic pump 41.6 μg peptide per hour, LEW.1W donor hearts) of the same sequence?
Answer: 80%

Question: And the “rejection of Brown Norway (BN) third party grafts, day after transplantation” value ([8]; osmotic pump 41.6 μg per hour, BN/LEW.1A)?
Answer: 7 days

Question: And the “percentage and absolute number of total CD8+ T cells, in particular CD8+CD45RClow Tregs in spleen” value [9]?
Answer: trend for an increase

Question: And the “tetramer-positive Du51-specific Tregs in spleen” value [9]?
Answer: trend for an increase

Question: With “YLRYDSDVGEYRAVTE [Bu31, sub-dominant peptide from donor MHC class II RT1.B^u]” as the sequence, how does the “upregulation … fold vs. no peptide” value [1] read?
Answer: 1.67±0.09 fold

Question: And the allograft survival [8]?
Answer: 11 days
